Assay results reported in article PMC10281575, “PfCRT mutations conferring piperaquine resistance in falciparum malaria shape the kinetics of quinoline drug binding and transport” (PLOS Pathogens, 2023).
“And” between values parts separate entries of the source, which are not always exact repeats. Identical values can stand only once.

Biological target: T1, PfCRT^Dd2_F145I (Plasmodium falciparum, UniProt Q8IBZ9, A220S/F145I/I356T/K76T/M74I/N326S/N75E/Q271E/R371I)
T1 construct: expressed in transfected cells; host or cells: Xenopus laevis oocytes injected with in vitro transcribed RNA (pSP64T)
T1 sequence (Q8IBZ9 1-424 M74I/N75E/K76T/F145I/A220S/Q271E/N326S/I356T/R371I): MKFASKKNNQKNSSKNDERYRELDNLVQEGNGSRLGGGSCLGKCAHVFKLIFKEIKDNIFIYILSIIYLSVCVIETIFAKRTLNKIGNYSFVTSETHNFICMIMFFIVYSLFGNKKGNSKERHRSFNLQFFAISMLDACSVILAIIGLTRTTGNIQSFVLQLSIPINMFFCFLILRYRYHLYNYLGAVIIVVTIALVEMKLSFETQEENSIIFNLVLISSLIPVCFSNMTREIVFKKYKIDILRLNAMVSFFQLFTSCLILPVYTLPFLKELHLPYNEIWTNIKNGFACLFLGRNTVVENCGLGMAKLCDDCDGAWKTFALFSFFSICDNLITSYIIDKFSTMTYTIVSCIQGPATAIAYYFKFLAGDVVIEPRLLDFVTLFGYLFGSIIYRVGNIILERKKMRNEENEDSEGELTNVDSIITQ
Experiment: Competition kinetics of drug transport (radiolabeled substrate plus cold inhibitor), PfCRT^Dd2_F145I-expressing oocytes
Assay type: cell-based
Procedure: To further characterize the kinetic relationship between CQ and PPQ, we performed a series of competition reactions. To this end, water-injected oocytes and PfCRT-expressing oocytes were incubated in medium containing one of seven concentrations of radio-labeled CQ and one of six concentrations of cold PPQ for 60 min before the amount of radio-labeled CQ uptake was determined. The rate of PfCRT-mediated CQ uptake was calculated for each condition by subtracting the corresponding value obtained for water-injected oocytes from those of PfCRT-expressing oocytes. The results were analyzed as a function of the CQ concentration (Fig 4A) and 16 different models of substrate competition were globally fit to the data by the least-squares method, using Python. The models were ranked, according to their Akaike information criterion difference (ΔAICC) and their Akaike weight (Fig 4B), with the most plausible model being the one with the lowest AICC (ΔAICC = 0) and the highest Akaike weight.
A complementary set of experiments was undertaken to investigate the kinetic mechanism by which PfCRT^Dd2_F145I accepts CQ and PPQ (Fig 6). […] These included a global fit of the substrate competition data to the 16 kinetic models (Fig 6), analysis of the secondary plots (Vmax,app and Vmax,app/KM,app as a function of the inhibitor concentration) (Fig 7A), a fractional velocity plot analysis (Fig 7B) and a comparison of the experimental data with the modelled data using the noncompetitive inhibition equation (Fig 7C to 7F). […] The fractional velocity plot illustrated the partial character of the noncompetitive inhibition mechanism by yielding a partiality factor β^CQ = 0.31 ± 0.04, by which PPQ reduces the transport velocity of CQ (Fig 7B). […] A 3D model of the kinetics between PfCRT^Dd2_F145I, CQ and PPQ, and analyses of the residuals as a function of substrate and inhibitor concentrations confirmed that the model was also an appropriate explanation for the mutant transporter (Fig 7C to 7F).
Drug transport assays were performed as previously described. Briefly, measurements of radiolabeled drug uptake were made over 1 h, unless otherwise specified. […] Where specified, one or more unlabeled drugs were also present at the indicated concentrations. The direction of drug transport in the assays is from the extracellular medium (pH 6) into the oocyte cytosol (pH 7.2), which corresponds to the efflux of CQ or PPQ from the acidic digestive vacuole (pH 5.2) into the parasite cytosol (pH 7.2). The uptake assays were terminated by removing the oocytes from the reaction medium and washing them three times with 2 mL of ice-cold ND96 buffer. Each oocyte was transferred to a separate scintillation vial and lysed by the addition of 200 μL of a 5% SDS solution. The radioactivity in the sample was measured using a liquid scintillation analyser Tri-Carb 4910 TR (PerkinElmer). Water-injected oocytes were analyzed in parallel as a negative control. The buffer from each condition was measured in duplicate in parallel to each experiment to transform counts per minute into pmol of drug. Drug uptake attributable to PfCRT was determined by subtracting the background uptake from water-injected oocytes from that of PfCRT-expressing oocytes. In all cases, at least three independent experiments were performed on oocytes from different frogs, and for each condition in an experiment, measurements were made from 10 oocytes per treatment.
The following equations were adopted from Segel (1993), and the reader is referred to that text for the assumptions made in the author’s approach in the derivation of each equation [31]. The concentration of substrate is denoted as [S1] and the concentration of the inhibiting substrate is denoted as [S2]. KS1 and KS2 are the dissociation constants for the respective substrate-protein complexes.
Analyses of the kinetic data were performed using SigmaPlot version 13.0 and Python. […]

Clc1ccc2c(N3CCN(CCCN4CCN(c5ccnc6cc(Cl)ccc56)CC4)CC3)ccnc2c1 [PPQ, piperaquine]
PfCRTDd2_F145I-mediated PPQ transport (10 µM PPQ, 0 µM CQ): 11.21 pmol oocyte-1 h-1 and 11.88 pmol oocyte-1 h-1 and 9.04 pmol oocyte-1 h-1
PfCRTDd2_F145I-mediated PPQ transport (10 µM PPQ, 50 µM CQ): 9.4 pmol oocyte-1 h-1 and 8.02 pmol oocyte-1 h-1 and 11.57 pmol oocyte-1 h-1
PfCRTDd2_F145I-mediated PPQ transport (10 µM PPQ, 125 µM CQ): 7.93 pmol oocyte-1 h-1 and 10.99 pmol oocyte-1 h-1 and 8.58 pmol oocyte-1 h-1
PfCRTDd2_F145I-mediated PPQ transport (10 µM PPQ, 200 µM CQ): 8.51 pmol oocyte-1 h-1 and 7.12 pmol oocyte-1 h-1 and 10.43 pmol oocyte-1 h-1
PfCRTDd2_F145I-mediated PPQ transport (10 µM PPQ, 400 µM CQ): 7.41 pmol oocyte-1 h-1 and 6.45 pmol oocyte-1 h-1
PfCRTDd2_F145I-mediated PPQ transport (50 µM PPQ, 25 µM CQ): 33.88 pmol oocyte-1 h-1 and 40.73 pmol oocyte-1 h-1 and 51.89 pmol oocyte-1 h-1
PfCRTDd2_F145I-mediated PPQ transport (50 µM PPQ, 50 µM CQ): 40.89 pmol oocyte-1 h-1 and 44.12 pmol oocyte-1 h-1 and 39.8 pmol oocyte-1 h-1
PfCRTDd2_F145I-mediated PPQ transport (50 µM PPQ, 125 µM CQ): 36.42 pmol oocyte-1 h-1 and 31.75 pmol oocyte-1 h-1 and 38.13 pmol oocyte-1 h-1
PfCRTDd2_F145I-mediated PPQ transport (50 µM PPQ, 400 µM CQ): 17.03 pmol oocyte-1 h-1 and 21.16 pmol oocyte-1 h-1
PfCRTDd2_F145I-mediated PPQ transport (100 µM PPQ, 0 µM CQ): 60.49 pmol oocyte-1 h-1 and 74.22 pmol oocyte-1 h-1 and 56.91 pmol oocyte-1 h-1
PfCRTDd2_F145I-mediated PPQ transport (100 µM PPQ, 25 µM CQ): 59.02 pmol oocyte-1 h-1 and 57.16 pmol oocyte-1 h-1 and 56.63 pmol oocyte-1 h-1
PfCRTDd2_F145I-mediated PPQ transport (100 µM PPQ, 50 µM CQ): 63 pmol oocyte-1 h-1 and 53.26 pmol oocyte-1 h-1 and 51.28 pmol oocyte-1 h-1
PfCRTDd2_F145I-mediated PPQ transport (100 µM PPQ, 125 µM CQ): 52.64 pmol oocyte-1 h-1 and 47.96 pmol oocyte-1 h-1 and 53 pmol oocyte-1 h-1
PfCRTDd2_F145I-mediated PPQ transport (100 µM PPQ, 200 µM CQ): 45.31 pmol oocyte-1 h-1 and 44.84 pmol oocyte-1 h-1 and 60.71 pmol oocyte-1 h-1
PfCRTDd2_F145I-mediated PPQ transport (100 µM PPQ, 400 µM CQ): 44.06 pmol oocyte-1 h-1 and 56.54 pmol oocyte-1 h-1
PfCRTDd2_F145I-mediated PPQ transport (200 µM PPQ, 25 µM CQ): 102.24 pmol oocyte-1 h-1 and 78.79 pmol oocyte-1 h-1 and 91.29 pmol oocyte-1 h-1
PfCRTDd2_F145I-mediated PPQ transport (200 µM PPQ, 50 µM CQ): 94.74 pmol oocyte-1 h-1 and 73.08 pmol oocyte-1 h-1 and 99.27 pmol oocyte-1 h-1
PfCRTDd2_F145I-mediated PPQ transport (200 µM PPQ, 125 µM CQ): 78.46 pmol oocyte-1 h-1 and 108.53 pmol oocyte-1 h-1 and 73.37 pmol oocyte-1 h-1
PfCRTDd2_F145I-mediated PPQ transport (200 µM PPQ, 400 µM CQ): 85.32 pmol oocyte-1 h-1 and 58.78 pmol oocyte-1 h-1
PfCRTDd2_F145I-mediated PPQ transport (300 µM PPQ, 0 µM CQ): 115.45 pmol oocyte-1 h-1 and 117.23 pmol oocyte-1 h-1
PfCRTDd2_F145I-mediated PPQ transport (300 µM PPQ, 25 µM CQ): 115.11 pmol oocyte-1 h-1 and 88.35 pmol oocyte-1 h-1 and 102.98 pmol oocyte-1 h-1
PfCRTDd2_F145I-mediated PPQ transport (300 µM PPQ, 50 µM CQ): 85.96 pmol oocyte-1 h-1 and 103.73 pmol oocyte-1 h-1 and 93.02 pmol oocyte-1 h-1
PfCRTDd2_F145I-mediated PPQ transport (300 µM PPQ, 125 µM CQ): 84.14 pmol oocyte-1 h-1 and 103.07 pmol oocyte-1 h-1 and 81.24 pmol oocyte-1 h-1
PfCRTDd2_F145I-mediated PPQ transport (300 µM PPQ, 200 µM CQ): 75.68 pmol oocyte-1 h-1 and 80.62 pmol oocyte-1 h-1 and 99.18 pmol oocyte-1 h-1
PfCRTDd2_F145I-mediated PPQ transport (300 µM PPQ, 400 µM CQ): 77.19 pmol oocyte-1 h-1 and 102 pmol oocyte-1 h-1
PfCRTDd2_F145I-mediated PPQ transport (400 µM PPQ, 0 µM CQ): 130.32 pmol oocyte-1 h-1 and 101.99 pmol oocyte-1 h-1
PfCRTDd2_F145I-mediated PPQ transport (400 µM PPQ, 25 µM CQ): 115.19 pmol oocyte-1 h-1 and 112.21 pmol oocyte-1 h-1 and 107.93 pmol oocyte-1 h-1
PfCRTDd2_F145I-mediated PPQ transport (400 µM PPQ, 50 µM CQ): 86.8 pmol oocyte-1 h-1 and 110.06 pmol oocyte-1 h-1 and 116.13 pmol oocyte-1 h-1
PfCRTDd2_F145I-mediated PPQ transport (400 µM PPQ, 125 µM CQ): 93.73 pmol oocyte-1 h-1 and 100.31 pmol oocyte-1 h-1 and 96.89 pmol oocyte-1 h-1
PfCRTDd2_F145I-mediated PPQ transport (400 µM PPQ, 200 µM CQ): 75.94 pmol oocyte-1 h-1 and 96.5 pmol oocyte-1 h-1 and 106.38 pmol oocyte-1 h-1
PfCRTDd2_F145I-mediated PPQ transport (400 µM PPQ, 400 µM CQ): 105.94 pmol oocyte-1 h-1 and 73.74 pmol oocyte-1 h-1
PfCRTDd2_F145I-mediated PPQ transport (500 µM PPQ, 0 µM CQ): 124.15 pmol oocyte-1 h-1 and 149.83 pmol oocyte-1 h-1
PfCRTDd2_F145I-mediated PPQ transport (500 µM PPQ, 25 µM CQ): 134.09 pmol oocyte-1 h-1 and 105.12 pmol oocyte-1 h-1 and 107.54 pmol oocyte-1 h-1
PfCRTDd2_F145I-mediated PPQ transport (500 µM PPQ, 50 µM CQ): 102.67 pmol oocyte-1 h-1 and 147.39 pmol oocyte-1 h-1 and 78.85 pmol oocyte-1 h-1
PfCRTDd2_F145I-mediated PPQ transport (500 µM PPQ, 125 µM CQ): 105.59 pmol oocyte-1 h-1 and 76.21 pmol oocyte-1 h-1 and 122.33 pmol oocyte-1 h-1
PfCRTDd2_F145I-mediated PPQ transport (500 µM PPQ, 200 µM CQ): 62.06 pmol oocyte-1 h-1 and 101.24 pmol oocyte-1 h-1
